From patent publication US7528128B2, “Pyrrolo[2,1-C][1,4]benzodiazepine hybrids and a process for the preparation thereof” (Council of Scientific & Industrial Research, priority 2006, dated 2009)

Key:
Colo205 (colon) = experiment: In vitro cytotoxicity, 48 h continuous drug exposure; type: cell-based, human; details: for Activity status in terms of IC50 value: Colo205, Colon; for cell growth by %: Colo205, relative to untreated control cells
Description: (§1) In vitro evaluation of cytotoxic activity. The compound 5a, 5b, 5g, 5i and 5j were evaluated for in vitro anticancer activity against nine human tumour cells derived from six cancer types (colon, prostate, oral, lung, cervix and breast cancer) as shown in Table 3. […] Compounds 5a, 5b, 5g, 5i and 5j have been evaluated for their in vitro cytotoxicity in selected human cancer cell lines of colon (Colo205), lung (Hop-62), cervix (SiHa), prostate (DU145, PC3), oral (DWD, HT1080), and breast (MCF7, Zr-75-1) origin. A protocol of 48 h continuous drug exposure has been used and an […] has been used to estimate cell viability or growth. […] Compound 5a, Colo205 cell growth by 83%, DU145 cell growth by 84%, DWD cell growth by 70%, Hop62 cell growth by 87%, HT1080 cell growth by 80%, MCF7 cell growth by 73%, PC3 cell growth by 91%, SiHa cell growth by 67%, Zr-75-1 cell growth by 76%. Compound 5b, Colo205 cell growth by 20%, DU145 cell growth by 64%, DWD cell growth by 70%, Hop62 cell growth by 78%, HT1080 cell growth by 72%, MCF7 cell growth by 69%, PC3 cell growth by 72%, SiHa cell growth by 20%, Zr-75-1 cell growth by 20%. Compound 5g, Colo205 cell growth by 50%, DU145 cell growth by 20%, DWD cell growth by 94%, Hop62 cell growth by 84%, HT1080 cell growth by 94%, MCF7 cell growth by 71%, PC3 cell growth by 86%, SiHa cell growth by 74%, Zr-75-1 cell growth by 72%. Compound 5i, DU145 cell growth by 42%, Hop62 cell growth by 60%, HT1080 cell growth by 70%, Compound 5j, Colo205 cell growth by 44%, DU145 cell growth by 57%, DWD cell growth by 65%, Hop62 cell growth by 53%, HT1080 cell growth by 71%, PC3 cell growth by 81%, SiHa cell growth by 77%.

DU145 (prostate) = experiment: as above; type: cell-based, human; details: for Activity status in terms of IC50 value: DU145, Prostate; for cell growth by %: DU145, relative to untreated control cells
Description: as §1

DWD (oral) = experiment: as above; type: cell-based, human; details: for Activity status in terms of IC50 value: Oral; for cell growth by %: relative to untreated control cells
Description: as §1

HT1080 (oral) = experiment: as above; type: cell-based, human; details: for Activity status in terms of IC50 value: HT1080, Oral; for cell growth by %: HT1080, relative to untreated control cells
Description: as §1

Hop62 (lung) = experiment: as above; type: cell-based, human; details: for Activity status in terms of IC50 value: Hop62, Lung; for cell growth by %: Hop62, relative to untreated control cells
Description: as §1

MCF7 (breast) = experiment: as above; type: cell-based, human; details: for Activity status in terms of IC50 value: MCF7, Breast; for cell growth by %: MCF7, relative to untreated control cells
Description: as §1

PC3 (prostate) = experiment: as above; type: cell-based, human; details: for Activity status in terms of IC50 value: PC3, Prostate; for cell growth by %: PC3, relative to untreated control cells
Description: as §1

SiHa (cervix) = experiment: as above; type: cell-based, human; details: for Activity status in terms of IC50 value: Cervix; for cell growth by %: relative to untreated control cells
Description: as §1

Zr-75-1 (breast) = experiment: as above; type: cell-based, human; details: for Activity status in terms of IC50 value: Zr-75-1, Breast; for cell growth by %: Zr-75-1, relative to untreated control cells
Description: as §1

[1] = tested on: duplex-form calf thymus DNA (CT-DNA); experiment: Thermal denaturation studies with CT-DNA; type: binding; details: for ΔTm after incubation at 37° C. for 0 h / ΔTm after incubation at 37° C. for 18 h / ΔTm after incubation at 37° C. for 36 h: [PBD]:[DNA] 1:5, CT-DNA 100 μM, ligand 20 μM; for ΔTm after incubation at 37° C. for 0 h: pH 7.00, 0 h; for ΔTm after incubation at 37° C. for 18 h: pH 7.00, 18 h; for ΔTm after incubation at 37° C. for 36 h: pH 7.00, 36 h; for course of ΔTm over 0 hr, 18 hr and 36 hr (in words): incubation at 37° C.
Description: Compounds were subjected to thermal denaturation studies with duplex-form calf thymus DNA (CT-DNA) using an adaptation of a reported procedure. Working solutions in aqueous buffer (10 mM NaH2PO4/Na2HPO4, 1 mM Na2EDTA, pH 7.00+0.01) containing CT-DNA (100 μm in phosphate) and the PBD (20 μm) were prepared by addition of concentrated PBD solutions in DMSO to obtain a fixed [PBD]/[DNA] molar ratio of 1:5. The DNA-PBD solutions were incubated at 37° C. for 0, 18, and 36 h prior to analysis. Samples were monitored at 260 nm using a Beckman DU-7400 spectrophotometer fitted with high performance temperature controller, and heating was applied at 1° C. min−1 in the 40-90° C. range. DNA helix coil transition temperatures (Tm) were obtained from the maxima in the (dA260)/dT derivative plots. Results are given as the mean ±standard deviation from three determinations and are corrected for the effects of DMSO co-solvent using a linear correction term. Drug-induced alterations in DNA melting behaviour are given by: ΔTm=Tm(DNA+PBD)−Tm (DNA alone), where the Tm value for the PBD-free CT-DNA is 69.0±0.01.

[2] = tested on: selected human cancer cell lines; experiment: In vitro cytotoxicity in selected human cancer cell lines (overall statements); type: cell-based; details: Table 3
Description: as §1

sixty human tumour cells = experiment: NCI in vitro anticancer screen, SRB protein assay, mean graph midpoints; type: cell-based; details: human tumour cell lines, 48 h continuous drug exposure
Description: Biological Activity: some of in vitro biological activity studies were carried out at the National Cancer Institute, Maryland, USA.
5e was evaluated for in vitro anticancer activity against sixty human tumour cells derived from nine cancer types (leukemia, non-small-cell lung, colon, CNS, melanoma, ovarian, prostate, and breast cancer) as shown in (Table 1 and 2). For the compound, dose response curves for each cell line were measured at a minimum of five concentrations at 10 fold dilutions. A protocol of 48 h continuous drug exposure was used and a sulforhodamine B (SRB) protein assay was used to estimate cell viability or growth. The concentration causing 50% cell growth inhibition (GI50), total cell growth inhibition (TGI 0% growth) and 50% cell death (LC50, −50% growth) compared with the control was calculated.

## 7-methoxy-8-{3-[2-benzoyl-(4-chlorophenyloxy)propoxy]}-(11aS)-1,2,3,11a-tetrahydro-5H-pyrrolo[2,1-c][1,4]benzodiazepine-5-one [Compound 5a]
Colo205 (colon)
  Activity status in terms of IC50 value: 17 µg/mL
  cell growth by %: 83%
DU145 (prostate)
  Activity status in terms of IC50 value: 16 µg/mL
  cell growth by %: 84%
DWD (oral)
  Activity status in terms of IC50 value: 30 µg/mL
  cell growth by %: 70%
HT1080 (oral)
  Activity status in terms of IC50 value: 20 µg/mL
  cell growth by %: 80%
Hop62 (lung)
  Activity status in terms of IC50 value: 13 µg/mL
  cell growth by %: 87%
MCF7 (breast)
  Activity status in terms of IC50 value: 27 µg/mL
  cell growth by %: 73%
PC3 (prostate)
  Activity status in terms of IC50 value: 9 µg/mL
  cell growth by %: 91%
SiHa (cervix)
  Activity status in terms of IC50 value: 43 µg/mL
  cell growth by %: 67%
Zr-75-1 (breast)
  Activity status in terms of IC50 value: 24 µg/mL
  cell growth by %: 76%
[1]
  ΔTm after incubation at 37° C. for 0 h: 1.4 °C
  ΔTm after incubation at 37° C. for 18 h: 1.7 °C
  ΔTm after incubation at 37° C. for 36 h: 2.2 °C
  course of ΔTm over 0 hr, 18 hr and 36 hr (in words): gradually increased
[2]
  cytotoxicity against some cancer cell lines (in words): promising cytotoxicity

## COc1cc2c(cc1OCCCCOc1ccc(Cl)cc1C(=O)c1ccccc1)N=C[C@@H]1CCCN1C2=O [Compound 5b, 7-methoxy-8-{4-[2-benzoyl-(4-chlorophenyloxy)butoxy]}-(11aS)-1,2,3,11a-tetrahydro-5H-pyrrolo[2,1-c][1,4]benzodiazepine-5-one]
Colo205 (colon)
  Activity status in terms of IC50 value: 32 µg/mL
  cell growth by %: 20%
DU145 (prostate)
  Activity status in terms of IC50 value: 35 µg/mL
  cell growth by %: 64%
DWD (oral)
  Activity status in terms of IC50 value: 30 µg/mL
  cell growth by %: 70%
HT1080 (oral)
  Activity status in terms of IC50 value: 28 µg/mL
  cell growth by %: 72%
Hop62 (lung)
  Activity status in terms of IC50 value: 22 µg/mL
  cell growth by %: 78%
MCF7 (breast)
  Activity status in terms of IC50 value: 31 µg/mL
  cell growth by %: 69%
PC3 (prostate)
  Activity status in terms of IC50 value: 28 µg/mL
  cell growth by %: 72%
SiHa (cervix)
  Activity status in terms of IC50 value: >80 µg/mL
  cell growth by %: 20%
Zr-75-1 (breast)
  Activity status in terms of IC50 value: >80 µg/mL
  cell growth by %: 20%
[1]
  ΔTm after incubation at 37° C. for 0 h: 1.5 °C
  ΔTm after incubation at 37° C. for 18 h: 2.1 °C
  ΔTm after incubation at 37° C. for 36 h: 2.6 °C
  course of ΔTm over 0 hr, 18 hr and 36 hr (in words): gradually increased
[2]
  cytotoxicity against some cancer cell lines (in words): promising cytotoxicity

## COc1cc2c(cc1OCCCCCOc1c(C)cc(Cl)cc1C(=O)c1ccccc1)N=C[C@@H]1CCCN1C2=O [Compound 5f, 7-methoxy-8-{3-[2-benzoyl-(4-chloro-6-methylphenyloxy)pentoxy]}-(11aS)-1,2,3,11a-tetrahydro-5H-pyrrolo[2,1-c][1,4]benzodiazepine-5-one]
Sixty human tumour cells
  Log10GI50 mean graph midpoint (MG_MID): −6.47
  Log10LC50 mean graph midpoint (MG_MID): −4.89
  Log10TGI mean graph midpoint (MG_MID): −5.24
